Test results reported in patent publication US12691111B2, “SETD2 inhibitors and related methods and uses, including combination therapies” (EPIZYME, INC., priority 2020, dated 2026).

Assays:
[1] = system: SUDHL-2; test: Pre-treatment model combination study (4 days pre-treatment, 3 days co-treatment), CellTiter-Glo, Loewe Volume; type: cell-based; details: SUDHL-2 diffuse large B-cell lymphoma cells, 4 days Cpd. No. 15 pre-treatment then 3 days co-treatment
Protocol: (§1) Diffuse large B-cell lymphoma cells were seeded into flasks and pre-treated with several concentrations of Cpd. No. 15 or DMSO. Cells were then split adjusted to initial density, replated and co-treated Cpd. No. 15 and a second agent of interest using the HP D300 digital dispenser (Tecan Group, Mannedorf, Switzerland) in tissue culture treated solid white 384-well plates for additional 3 days. […] After 3 days cotreatment, cell viability was measured via ATP content using CellTiter-Glo® (Promega, Madison, WI) and luminescence was detected using a SpectraMax M5 microplate reader (Molecular Devices, Sunnyvale, CA).
(§2) Diffuse large B-cell lymphoma (DLBCL) cell line cultures in log-linear growth rate were treated with combinations of Cpd. No. 15 and combination partners according to a pre-treatment model. Cells were seeded first into 8 flasks and pre-treated with 7 different concentrations of Cpd. […] Cells were harvested from each flask and re-seeded onto the corresponding 384-well plate with the same concentration of Cpd. No. 15. and 9 concentrations of its combination partner in triplicate wells. The final concentration of DMSO (vehicle) in the assay was 0.1% v/v. Fifty microliters of cell line(s) suspension were directly dispensed to the assay-ready plates with an automated multichannel dispenser on to 384-well assay-ready plates. Assay plates were incubated for three days in a humidified atmosphere of 5% CO2 at 37° C. Quantification of the effect of single agents or combinations on cell viability was performed through measurement of cellular adenosine triphosphate (ATP) using CellTiter-Glo® (Promega, Madison, WI). Luminescence was detected using a SpectraMax M5 microplate reader (Molecular Devices, Sunnyvale, CA). Concentration response plots were generated in GraphPad Prism version 8.0 for Windows, GraphPad Software, (La Jolla, CA) and curves fitted to a four-parameter logistic model with variable slope. Percent of inhibition was calculated at each treatment concentration.

[2] = system: KARPAS422; test: as above; type: cell-based; details: KARPAS422 diffuse large B-cell lymphoma cells, 4 days Cpd. No. 15 pre-treatment then 3 days co-treatment
Protocol: as §1, §2

[3] = system: SUDHL-6; test: as above; type: cell-based; details: SUDHL-6 diffuse large B-cell lymphoma cells, 4 days Cpd. No. 15 pre-treatment then 3 days co-treatment
Protocol: as §1, §2

[4] = system: WSUDLCL2; test: as above; type: cell-based; details: WSUDLCL2 diffuse large B-cell lymphoma cells, 4 days Cpd. No. 15 pre-treatment then 3 days co-treatment
Protocol: as §1, §2

[5] = system: MINO; test: 7-day co-treatment combination study, CellTiter-Glo, Loewe Volume; type: cell-based; details: MINO mantle cell lymphoma cells, 7-day co-treatment with Cpd. No. 15
Protocol: (§3) Multiple myeloma (MM) and mantle cell lymphoma (MCL) Cell line cultures in log-linear growth rate were treated with combinations of Cpd. No. 15 and combination partners according to a co-treatment model. […] No. 15 and the combination partner. […] Each combination was tested in quadruplicate wells. The final concentration of DMSO (vehicle) in the assay was 0.1% v/v. Fifty microliters of cell line suspension were directly dispensed to the assay-ready plates with an automated multichannel dispenser on to 384-well assay-ready plates. Assay plates were incubated for seven days in a humidified atmosphere of 5% CO2 at 37° C. Quantification of the effect of single agents or combinations on cell viability was performed through measurement of cellular adenosine triphosphate (ATP) using a CellTiter-Glo® (Promega, MadisonWIs.) Luminescent Cell Viability Assay. Luminescence was detected using a SpectraMax M5 microplate reader (Molecular Devices, Sunnyvale, CA). Concentration response plots were generated in GraphPad Prism version 7.0 for Windows, GraphPad Software, (La Jolla, CA) and curves fitted to a four-parameter logistic model with variable slope. Percent of inhibition was calculated at each treatment concentration.
(§4) The results of these combinations are summarized in Tables A and B (multiple myeloma cell lines), and Tables C and D (mantle cell lymphoma cell lines).

[6] = system: Z138; test: as above; type: cell-based; details: Z138 mantle cell lymphoma cells, 7-day co-treatment with Cpd. No. 15
Protocol: as §3, §4

[7] = system: JEKO1; test: as above; type: cell-based; details: JEKO1 mantle cell lymphoma cells, 7-day co-treatment with Cpd. No. 15
Protocol: as §3, §4

[8] = system: RPMI-8226; test: as above; type: cell-based; details: RPMI-8226 multiple myeloma cells, 7-day co-treatment with Cpd. No. 15
Protocol: as §3, §4

[9] = system: REC1; test: as above; type: cell-based; details: REC1 mantle cell lymphoma cells, 7-day co-treatment with Cpd. No. 15
Protocol: as §3, §4

[10] = system: KMS-28-BM; test: as above; type: cell-based; details: KMS-28-BM multiple myeloma cells, 7-day co-treatment with Cpd. No. 15
Protocol: as §3, §4

[11] = system: GRANTA519; test: as above; type: cell-based; details: GRANTA519 mantle cell lymphoma cells, 7-day co-treatment with Cpd. No. 15
Protocol: as §3, §4

[12] = system: MM1.S; test: as above; type: cell-based; details: MM1.S multiple myeloma cells, 7-day co-treatment with Cpd. No. 15
Protocol: as §3, §4

[13] = system: L363; test: as above; type: cell-based; details: L363 multiple myeloma cells, 7-day co-treatment with Cpd. No. 15
Protocol: as §3, §4

[14] = system: KMS34; test: as above; type: cell-based; details: KMS34 multiple myeloma cells, 7-day co-treatment with Cpd. No. 15
Protocol: as §3, §4

[15] = system: JVM2; test: as above; type: cell-based; details: JVM2 mantle cell lymphoma cells, 7-day co-treatment with Cpd. No. 15
Protocol: as §3, §4

[16] = system: MAVER1; test: as above; type: cell-based; details: MAVER1 mantle cell lymphoma cells, 7-day co-treatment with Cpd. No. 15
Protocol: as §3, §4

[17] = system: KMS-11; test: as above; details: KMS-11 multiple myeloma cells, 7-day co-treatment with Cpd. No. 15

SMILES | Combination effect (Loewe Volume class) of Cpd. No. 15 with combination partner [1] | Combination effect (Loewe Volume class) of Cpd. No. 15 with combination partner [2] | Combination effect (Loewe Volume class) of Cpd. No. 15 with combination partner [3] | Combination effect (Loewe Volume class) of Cpd. No. 15 with combination partner [4] | Combination effect (Loewe Volume class) of Cpd. No. 15 with combination partner [5] | Combination effect (Loewe Volume class) of Cpd. No. 15 with combination partner [6] | Combination effect (Loewe Volume class) of Cpd. No. 15 with combination partner [7] | Combination effect (Loewe Volume class) of Cpd. No. 15 with combination partner [8] | Combination effect (Loewe Volume class) of Cpd. No. 15 with combination partner [9] | Combination effect (Loewe Volume class) of Cpd. No. 15 with combination partner [10] | Combination effect (Loewe Volume class) of Cpd. No. 15 with combination partner [11] | Combination effect (Loewe Volume class) of Cpd. No. 15 with combination partner [12] | Combination effect (Loewe Volume class) of Cpd. No. 15 with combination partner [13] | Combination effect (Loewe Volume class) of Cpd. No. 15 with combination partner [14] | Combination effect (Loewe Volume class) of Cpd. No. 15 with combination partner [15] | Combination effect (Loewe Volume class) of Cpd. No. 15 with combination partner [16] | Combination effect (Loewe Volume class) of Cpd. No. 15 with combination partner [17]
Nc1cccc2c1CN(C1CCC(=O)NC1=O)C2=O (centres unmarked) [Lenalidomide, lenalidomide] | Additivity (between 1 and −1: additivity) | No effect | No effect | Additivity (between 1 and −1: additivity) | Additivity (between 1 and −1: additivity) | Synergy (VLoewe>1: synergy) | Synergy (VLoewe>1: synergy) | Synergy (VLoewe>1: synergy) | Additivity (between 1 and −1: additivity) | No Effect | Additivity (between 1 and −1: additivity) | Additivity (between 1 and −1: additivity) | Additivity (between 1 and −1: additivity) | Synergy (VLoewe>1: synergy) | Additivity (between 1 and −1: additivity) | Synergy (VLoewe>1: synergy) | Synergy (VLoewe>1: synergy)
CCN(c1cc(-c2ccc(CN3CCOCC3)cc2)cc(C(=O)NCc2c(C)cc(C)[nH]c2=O)c1C)C1CCOCC1 [Tazemetostat, tazemetostat] | Additivity (between 1 and −1: additivity) | No effect | No effect | Additivity (between 1 and −1: additivity) | No Effect | No Effect | No Effect | Additivity (between 1 and −1: additivity) | Additivity (between 1 and −1: additivity) | – | No Effect | Synergy (VLoewe>1: synergy) | Synergy (VLoewe>1: synergy) | Synergy (VLoewe>1: synergy) | Additivity (between 1 and −1: additivity) | Additivity (between 1 and −1: additivity) | –
